Experimental data reported in patent US6013632A, “Compounds and their combinations for the treatment of influenza infection” (Emory University, priority 1998, dated 2000).

Tests used:
MDCK cells [1] = assay: Toxicity to MDCK cells at the tested concentrations; conditions: 10 mM and 30 mM
Influenza A/WSN strain [2] = assay: Virus production by HA titer in influenza-infected MDCK cells; format: cell-based; conditions: for inhibition at 10000 µM / inhibition at 30000 µM: Influenza A virus, WSN; for Decreased virus production (HA titer): 48 hours post infection
MDCK cells [3] = conditions: 10 mM
Protocol: GSH was measured in MDCK cells after infection with influenza virus either without or with 10 mM GSH.

viral proteins = conditions: 35S-methionine labeling after virus infection, without or with added compound
Protocol: To determine whether GSH altered viral protein synthesis and processing, cells were incubated with ^35 S-methionine to label newly synthesized proteins following virus infection either without or with added GSH. Cells were washed and lysed in SDS-PAGE buffer.

MDCK cells [4] = system: MDCK cells
Influenza A/WSN strain [5] = conditions: normal human SAEC, plaque forming assay
Influenza A/WSN strain [6] = conditions: 30 mM, normal human SAEC, cultured up to 72 h
Protocol: SAEC were cultured until 70% confluent. Cells were washed and inoculated with influenza A/WSN strain for 2 h. After washing to remove non-adherent virus, cells were cultured for up to 72 h in medium without or with GSH and assayed for virus production by HA titer.

MDCK cells [7] = system: MDCK cells; remark: listed apart in the source
Influenza A/WSN strain [8] = assay: Plaque-forming units in supernatant of infected MDCK cells; format: cell-based; conditions: 10 mM, 48 h
Protocol: MDCK cells were cultured in 100 mm dishes until 80% confluent. Cells were washed with phosphate-buffered saline and inoculated with Influenza A/WSN strain at a multiplicity of infection of 0.05-0.1 plaque-forming units/cell in serum-free DMEM medium for 2 hours. […] At 48 hours post infection, 100 μl supernatant from each dish was assayed for virus HA titer or plaque-forming units.

## CC(=O)N[C@@H](CS)C(=O)O [NAC, N-Acetyl-L-cysteine, reference compound]
MDCK cells [1]
  Toxicity to cells: not toxic
Influenza A/WSN strain [2]; 10 mM, 24 h
  inhibition at 10000 µM: 50%
Influenza A/WSN strain [2]; 10 mM, 48 h post infection
  inhibition at 10000 µM: 62%
Influenza A/WSN strain [2]; 30 mM, 24 h
  inhibition at 30000 µM: 75%
Influenza A/WSN strain [2]; 30 mM, 48 h post infection
  inhibition at 30000 µM: 95%

## N[C@@H](CCC(=O)N[C@@H](CS)C(=O)NCC(=O)O)C(=O)O [GSH, gamma-L-Glu-L-Cys-Gly]
MDCK cells [3]; MDCK cells, absence of virus
  Effect on cellular GSH: did not increase cellular GSH
MDCK cells [3]; virus-infected MDCK cells
  Effect on loss of cellular GSH: did not prevent the loss of GSH
Viral proteins
  Patterns or amounts of labeled viral proteins: no detectable differences
Influenza A/WSN strain [2]; 1 mM
  Decreased virus production (HA titer): 30%
Influenza A/WSN strain [2]; 5 mM
  Decreased virus production (HA titer): 60%
Influenza A/WSN strain [2]; 10 mM, 48 h post infection
  Inhibition of virus production (HA titer): 56%
Influenza A/WSN strain [2]; 30 mM, 48 h post infection
  Inhibition of virus production (HA titer): 90%
MDCK cells [4]; no virus
  Apoptosis caused by the compound alone: did not cause apoptosis
MDCK cells [4]; up to 30 mM, 48 h
  Effect on apoptosis of virus infected cells: unaffected
Influenza A/WSN strain [5]
  Confirmation of decreased virus production by number of infectious particles: confirmed
Influenza A/WSN strain [6]
  Decrease of virus production (HA titer): greater than 90%
MDCK cells [7]
  Toxicity to the cells: not toxic
Influenza virus; 10-30 mM co-incubated with virus and MDCK cells for 2 h, washed, then 48 h
  Decrease in virus production: no decrease
Influenza virus; added after incubation of cells with virus, 48 h, MDCK cells
  Decrease of HA titer: 85%
Influenza virus; virus incubated 1 h with up to 30 mM before incubation with MDCK cells
  Effect on virus production after 48 h: no effect

## Ascorbate-2-phosphate
Influenza A/WSN strain [8]
  Inhibition of plaque-forming units: 50%
Influenza A/WSN strain [2]; 10 mM, 48 h post infection
  Inhibition of virus production (HA titer): 37%
Influenza A/WSN strain [2]; 10 or 30 mM
  Protection against virus titer and infectious particle production: provided protection
